In patent US20240368173A1, “TRICYCLIC GPR65 MODULATORS” (PATHIOS THERAPEUTICS LIMITED, priority 2021, published 2024):

target: human recombinant GPR65 (Homo sapiens, UniProt Q8IYL9); assay: Human GPR65 cAMP HTRF antagonist assay; format: cell-based; details: not given
Procedure, shortened: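 1321N1 astrocytoma cells stably expressing hrGPR65, with IBMX and EDTA, were preincubated with compound 30 min at room temperature, then acid-activated at assay pH 7.2 (control pH 7.9) for 30 min. cAMP read by HTRF (665/620 nm ratio); IC50 from 4-parameter fit normalised to high/low controls.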

Chain of human recombinant GPR65 (Q8IYL9 whole entry): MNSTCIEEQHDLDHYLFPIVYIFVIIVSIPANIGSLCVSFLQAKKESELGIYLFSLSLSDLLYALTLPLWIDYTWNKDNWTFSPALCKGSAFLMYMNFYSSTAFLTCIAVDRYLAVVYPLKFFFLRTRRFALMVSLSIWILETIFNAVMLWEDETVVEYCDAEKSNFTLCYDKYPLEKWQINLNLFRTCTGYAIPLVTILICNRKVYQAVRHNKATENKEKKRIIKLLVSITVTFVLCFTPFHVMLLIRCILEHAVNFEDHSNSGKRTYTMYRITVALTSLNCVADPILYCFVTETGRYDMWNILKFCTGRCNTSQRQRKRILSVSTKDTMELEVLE

**Q.** With `O=C(Nc1cc(Cl)c(C(F)(F)F)cc1F)N1[C@@H]2CC[C@H]1c1n[nH]c(=O)cc1C2` [Compound 19, (6R,9S)-N-(5-Chloro-2-fluoro-4-(trifluoromethyl)phenyl)-3-oxo-3,5,6,7,8,9-hexahydro-2H-6,9-epiminocyclohepta[c]pyridazine-10-carboxamide] as the molecule, how does the IC50 read?
**A.** < 500 nM

**Q.** For `N#Cc1cc(NC(=O)N2C3CCC2c2n[nH]c(=O)cc2C3)ccc1C(F)(F)F` (racemic) [Compound 11, (±)-N-(3-Cyano-4-(trifluoromethyl)phenyl)-3-oxo-3,5,6,7,8,9-hexahydro-2H-6,9-epiminocyclohepta[c]pyridazine-10-carboxamide], which IC50 is on record?
**A.** < 500 nM

**Q.** `O=C(Nc1cc(Cl)c(-c2nnc(C(F)(F)F)s2)cc1F)N1[C@H]2CC[C@@H]1c1ccnc(F)c1C2` [Compound 65, (5R,8S)-N-(5-Chloro-2-fluoro-4-(5-(trifluoromethyl)-1,3,4-thiadiazol-2-yl)phenyl)-1-fluoro-6,7,8,9-tetrahydro-5H-5,8-epiminocyclohepta[c]pyridine-10-carboxamide] was tested. Which IC50 did it give?
**A.** < 500 nM

**Q.** For `O=C(Nc1cc(Cl)c(-c2ccc(F)nc2)cn1)N1[C@H]2CC[C@@H]1c1n[nH]c(=O)cc1C2` [Compound 230, (6S,9R)-N-(4-Chloro-6′-fluoro-[3,3′-bipyridin]-6-yl)-3-oxo-3,5,6,7,8,9-hexahydro-2H-6,9-epiminocyclohepta[c]pyridazine-10-carboxamide], which IC50 is on record?
**A.** < 500 nM

**Q.** Which IC50 does the source give for `O=C(Nc1cc(F)c(-c2ccc(F)nc2)cc1F)N1[C@H]2CC[C@@H]1c1ccnc(F)c1C2` [Compound 242, (5R,8S)-N-(2,5-Difluoro-4-(6-fluoropyridin-3-yl)phenyl)-1-fluoro-6,7,8,9-tetrahydro-5H-5,8-epiminocyclohepta[c]pyridine-10-carboxamide] here?
**A.** < 500 nM

**Q.** `O=C(Nc1cc(Cl)c(F)cc1Oc1ccc2nonc2c1)N1[C@H]2CC[C@@H]1c1n[nH]c(=O)cc1C2` [Compound 224, (6S,9R)-N-(2-(Benzo[c][1,2,5]oxadiazol-5-yloxy)-5-chloro-4-fluorophenyl)-3-oxo-3,5,6,7,8,9-hexahydro-2H-6,9-epiminocyclohepta[c]pyridazine-10-carboxamide] was tested. Which IC50 did it give?
**A.** 500 to 5000 nM

**Q.** For `N#Cc1cc(NC(=O)N2[C@H]3CC[C@@H]2c2n[nH]c(=O)cc2C3)ccc1C(F)(F)F` [Compound 41, (6S,9R)-N-(3-Cyano-4-(trifluoromethyl)phenyl)-3-oxo-3,5,6,7,8,9-hexahydro-2H-6,9-epiminocyclohepta[c]pyridazine-10-carboxamide], which IC50 is on record?
**A.** < 500 nM

**Q.** How did the IC50 turn out when `O=C(Nc1cc(Cl)c(-c2ccc3nonc3n2)cc1F)N1[C@H]2CC[C@@H]1c1n[nH]c(=O)cc1C2` [Compound 314, (6S,9R)-N-(4-([1,2,5]Oxadiazolo[3,4-b]pyridin-5-yl)-5-chloro-2-fluorophenyl)-3-oxo-3,5,6,7,8,9-hexahydro-2H-6,9-epiminocyclohepta[c]pyridazine-10-carboxamide] was run?
**A.** < 500 nM

**Q.** `N#Cc1cncc(-c2cc(F)c(NC(=O)N3[C@H]4CC[C@@H]3c3n[nH]c(=O)cc3C4)cc2Cl)c1` [Compound 127, (6S,9R)-N-(5-Chloro-4-(5-cyanopyridin-3-yl)-2-fluorophenyl)-3-oxo-3,5,6,7,8,9-hexahydro-2H-6,9-epiminocyclohepta[c]pyridazine-10-carboxamide] was tested. Which IC50 did it give?
**A.** < 500 nM

**Q.** For `COCCNc1ncc(-c2cc(F)c(NC(=O)N3[C@H]4CC[C@@H]3c3n[nH]c(=O)cc3C4)cc2Cl)cn1` [Compound 121, (6S,9R)-N-(5-Chloro-2-fluoro-4-(2-((2-methoxyethyl)amino)pyrimidin-5-yl)phenyl)-3-oxo-3,5,6,7,8,9-hexahydro-2H-6,9-epiminocyclohepta[c]pyridazine-10-carboxamide], which IC50 is on record?
**A.** < 500 nM

**Q.** Which IC50 does the source give for `O=C(Nc1cc(Cl)c(-c2ccc(OC(F)F)nc2)cc1F)N1[C@H]2CC[C@@H]1c1c[nH]c(=O)cc1C2` [Compound 325, (6S,9R)-N-(5-Chloro-4-(6-(difluoromethoxy)pyridin-3-yl)-2-fluorophenyl)-3-oxo-3,5,6,7,8,9-hexahydro-2H-6,9-epiminocyclohepta[c]pyridine-10-carboxamide] here?
**A.** < 500 nM

**Q.** Which IC50 does the source give for `COc1ccc(-c2cc(F)c(NC(=O)N3[C@H]4CC[C@@H]3c3n[nH]c(=O)cc3C4)cc2F)cn1` [Compound 247, (6S,9R)-N-(2,5-Difluoro-4-(6-methoxypyridin-3-yl)phenyl)-3-oxo-3,5,6,7,8,9-hexahydro-2H-6,9-epiminocyclohepta[c]pyridazine-10-carboxamide] here?
**A.** < 500 nM

**Q.** `O=C(Nc1cc(Br)c(C(F)(F)F)cc1F)N1C2CCC1c1c[nH]c(=O)nc1C2` (racemic) [Compound 17, (±)-N-(5-bromo-2-fluoro-4-(trifluoromethyl)phenyl)-2-oxo-3,5,6,7,8,9-hexahydro-2H-5,8-epiminocyclohepta[d]pyrimidine-10-carboxamide] was tested. Which IC50 did it give?
**A.** < 500 nM

**Q.** `O=C(Nc1cc(Cl)c(-c2ccnc(F)c2)cc1F)N1[C@H]2CC[C@@H]1c1c[nH]c(=O)cc1C2` [Compound 267, (6S,9R)-N-(5-Chloro-2-fluoro-4-(2-fluoropyridin-4-yl)phenyl)-3-oxo-3,5,6,7,8,9-hexahydro-2H-6,9-epiminocyclohepta[c]pyridine-10-carboxamide] was tested. Which IC50 did it give?
**A.** < 500 nM

**Q.** For `Cn1nnc2ccc(-c3cc(F)c(NC(=O)N4[C@H]5CC[C@@H]4c4n[nH]c(=O)cc4C5)cc3Cl)cc21` [Compound 141, (6S,9R)-N-(5-Chloro-2-fluoro-4-(1-methyl-1H-benzo[d][1,2,3]triazol-6-yl)phenyl)-3-oxo-3,5,6,7,8,9-hexahydro-2H-6,9-epiminocyclohepta[c]pyridazine-10-carboxamide], which IC50 is on record?
**A.** < 500 nM

**Q.** For `O=C(Nc1ccc(Br)c(Cl)c1)N1[C@H]2CC[C@@H]1c1n[nH]c(=O)cc1C2` [Compound 39, (6S,9R)-N-(4-Bromo-3-chlorophenyl)-3-oxo-3,5,6,7,8,9-hexahydro-2H-6,9-epiminocyclohepta[c]pyridazine-10-carboxamide], which IC50 is on record?
**A.** < 500 nM

**Q.** `O=C(Nc1cc(Cl)c(Br)cc1F)N1[C@H]2CC[C@@H]1c1n[nH]c(=O)cc1C2` [Compound 32, (6S,9R)-N-(4-Bromo-5-chloro-2-fluorophenyl)-3-oxo-3,5,6,7,8,9-hexahydro-2H-6,9-epiminocyclohepta[c]pyridazine-10-carboxamide] was tested. Which IC50 did it give?
**A.** < 500 nM

same assay, conditions: 1321N1-hrGPR65 cells, cAMP HTRF, assay pH 7.2; read-out: hGPR65 IC50 (Activity of selected compounds according to the invention)

**Q.** How did the IC50 turn out when `CO[C@H]1C[C@@H](Oc2ccc(NC(=O)N3C4CCC3c3n[nH]c(=O)cc3C4)cc2Cl)C1` (mixture of isomers) [Compound 36, (±)-N-(3-Chloro-4-((1s,3S)-3-methoxycyclobutoxy)phenyl)-3-oxo-3,5,6,7,8,9-hexahydro-2H-6,9-epiminocyclohepta[c]pyridazine-10-carboxamide] was run?
**A.** > 5000 nM

**Q.** Which IC50 does the source give for `O=C(Nc1ccc(OC2COC2)c(Cl)c1)N1[C@H]2CC[C@@H]1c1ccnc(F)c1C2` [Compound 71, (5R,8S)-N-(3-Chloro-4-(oxetan-3-yloxy)phenyl)-1-fluoro-6,7,8,9-tetrahydro-5H-5,8-epiminocyclohepta[c]pyridine-10-carboxamide] here?
**A.** 500 to 5000 nM

**Q.** With `O=C(Nc1cc(Br)c(Cl)cc1F)N1[C@@H]2CC[C@H]1c1c[nH]c(=O)nc1C2` [Compound 27, (5S,8R)-N-(5-Bromo-4-chloro-2-fluorophenyl)-2-oxo-3,5,6,7,8,9-hexahydro-2H-5,8-epiminocyclohepta[d]pyrimidine-10-carboxamide] as the molecule, how does the IC50 read?
**A.** 500 to 5000 nM
